pIC50: −log10 of the molar value.
Tested on: MDA175-VII (NRG1-DOC4 fusion) cells
Experiment: Cell viability of MDA175-VII (NRG1-DOC4 fusion) cells, Cell Titer Glo assay
Format: cell-based
Conditions: 72 hours
Protocol: FIG. 1A. Representative dose response curves of MDA175-VII (NRG1-DOC4 fusion) treated with the indicated IACS novel quinazoline-based TKIs for 72 hours. Cell viability was determined by Cell Titer Glo Assay.
FIG. 3A. Representative dose response curves of MDA175-VII (NRG1-DOC4 fusion) treated with the indicated anti-HER2 therapy with or without low dose treatment of IACS inhibitors for 72 hours. Cell viability was determined by Cell Titer Glo Assay.
Cell viability was determined by the Cell Titer Glo assay.

[1] = MDA175-VII (NRG1-DOC4 fusion) cells treated with IACS inhibitors
[2] = MDA175-VII (NRG1-DOC4 fusion) cells treated with anti-HER2 antibodies with or without low dose IACS inhibitors

Question: How did the pIC50 [1] turn out when C=CC(=O)N1CC(Oc2cc3c(Nc4ccc(Cl)c(Cl)c4)ncnc3cc2OC)C1 [IACS-015285] was run?
Answer: The pIC50 was 9.57.

Question: How did the pIC50 [1] turn out when C=CC(=O)N1CC(Oc2cc3c(Nc4ccc(Cl)c(Cl)c4F)ncnc3cc2OC)C1 [IACS-015293] was run?
Answer: Its pIC50 is 9.80.

Question: With C=CC(=O)N1CC(Oc2ccc3ncnc(Nc4ccc(Cl)c(Cl)c4)c3n2)C1 [IACS-052336] as the molecule, how does the pIC50 [1] read?
Answer: Its pIC50 is 7.57.

Question: With C=CC(=O)N1CCC(Oc2cc3c(Nc4ccc(Cl)c(Cl)c4F)c(C#N)cnc3cc2OC)CC1 [IACS-070709] as the molecule, how does the pIC50 [1] read?
Answer: The pIC50 was 8.89.

Question: With C=CC(=O)N1CC(Oc2cc3c(Nc4ccc(Cl)cc4Cl)ncnc3cc2OC)C1 [IACS-070863] as the molecule, how does the pIC50 [1] read?
Answer: The pIC50 was 7.98.

Question: How did the pIC50 [1] turn out when C=CC(=O)N1CC(Oc2cc3c(Nc4ccc(Br)c(Cl)c4)ncnc3cc2OC)C1 [IACS-070864] was run?
Answer: Its pIC50 is 9.01.

Question: How did the pIC50 [1] turn out when C=CC(=O)N1CC(Oc2cc3c(Nc4ccccc4)ncnc3cc2OC)C1 [IACS-070871] was run?
Answer: The pIC50 was 8.97.

Question: C=CC(=O)N1CCC(Oc2cc3c(Nc4ccc(Cl)c(Cl)c4F)ncnc3cc2OC)C1 (centres unmarked) [IACS-070968] was tested. Which pIC50 [1] did it give?
Answer: Its pIC50 is 8.51.

Question: C=CC(=O)N1CCC(Oc2cc3c(Nc4ccc(Cl)c(Cl)c4)ncnc3cc2OC)CC1 [IACS-070979] was tested. Which pIC50 [1] did it give?
Answer: Its pIC50 is 9.80.

Question: How did the pIC50 [1] turn out when C=CC(=O)N1CCC(Oc2cc3c(Nc4ccc(Cl)cc4Cl)ncnc3cc2OC)CC1 [IACS-070980] was run?
Answer: The pIC50 was 8.35.

Question: C=CC(=O)N1CCC(Oc2cc3c(Nc4ccc(Br)c(Cl)c4)ncnc3cc2OC)CC1 [IACS-070982] was tested. Which pIC50 [1] did it give?
Answer: Its pIC50 is 9.53.

Question: With C=CC(=O)N1CCC(Oc2cc3c(Nc4ccccc4)ncnc3cc2OC)CC1 [IACS-070989] as the molecule, how does the pIC50 [1] read?
Answer: Its pIC50 is 8.99.

Question: How did the pIC50 [2] turn out when “Pertuzumab: recombinant, humanized monoclonal antibody that inhibits dimerization of HER2 [reference compound]” was run?
Answer: Its pIC50 is 7.23.

Question: With T-DM1 [reference compound] as the molecule, how does the pIC50 [2] read?
Answer: Its pIC50 is 6.19.
